Assay results: PubChem BioAssay AID179 (DTP/NCI, 2004)
“And” between values parts separate entries of the source, which are not always exact repeats. Identical values can stand only once. The source made the active and inactive calls.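 How the source made its calls: active means compounds giving half or more protection of infected cells from virus-caused growth loss, again on retest; inactive means the rest.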 *1 amine or outer side, *2 acyl side, *3 side chain or, on linkers, in order; H or OH if unused. Where a SMILES comes first, the peptide text is derived from it. [ ]: non-standard residue; d: D form. X7 = NC(N)=NCC(O)CC(N[*:1])C(=O)[*:2]; Orn = NCCC[CH](N)C(=O)O

Tested on: CEM cells HIV-1 protection, formazan growth assay
Assay: NCI AIDS Antiviral Assay
Settings: for IC50: measured here: growth of uninfected CEM cells
How it was run: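 Human CEM cells, uninfected and HIV-1-infected, received five drug concentrations, and growth was read by soluble formazan assay. Compounds giving at least 50% protection were retested; reproducible 100% protection defined confirmed active.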

Structure (SMILES) | outcome | EC50 | IC50
N/N=C1\C(=O)N(C2CCCCC2)C(=O)C1C(=O)NC1CCCCC1 (stereo not drawn) | inactive | – | –
CCC(=O)N1C(=O)C(CC)(CC)C(=O)N1C(=O)CC | – | > 200 µM | > 200 µM
OCC1NC(CC2OC(CO)C(O)C(O)C2O)C(O)C(O)C1O (stereo not drawn) | – | > 200 µM | > 200 µM
COc1cc2cc(C(=O)N3CC(CCl)c4c3cc(N)c3ccccc43)[nH]c2c(OC)c1OC (stereo not drawn) | – | > 0.2 µM | 0.000832 µM
S=C(N/N=C(/c1ccccc1)c1ccccn1)Nc1ccc(Cl)cc1 | – | > 0.2 µM | 0.123 µM
O=C(O)/C=C/c1c2ccc(=O)c(O)c-2oc2c(O)c(O)ccc12 | – | 6.03 µM and 24 µM | 151 µM and 162 µM
COc1ccc(/C=C2\CCCCCC2=O)cc1 | – | > 200 µM | > 200 µM
CCN(CC)CCN1CCN=c2c3cc(OC)ccc3n3cnc4ccc1c2c43 | – | > 2 µM | 0.0347 µM
COc1cccc(-n2c3nc(=O)n(C)c(=O)c-3nc3ccccc32)c1 | inactive | – | –
O=Nc1ccc2ccccc2c1N=Nc1ccccc1C(=O)O | – | > 200 µM | 182 µM
COc1cccc(C2CC(C)=Nc3c(ccc4c3C(=O)c3ccccc3C4=O)N2)c1O (stereo not drawn) | – | > 9.12 µM | > 9.12 µM
C/C(=N\NC(=S)N/N=C(\C)c1ccccn1)c1ccccn1 | – | > 200 µM | 1.32 µM
Cc1ccc(Nc2[nH]c(=O)[nH]c(=O)c2N=O)cc1 | – | > 200 µM | > 200 µM
C[N+]12C=CC=C1C(N1CCCC1)c1scc(-c3ccccc3)c12 (stereo not drawn) | – | > 200 µM | 17.8 µM
CCOP1(=O)C=C(Sc2ccc([N+](=O)[O-])cc2[N+](=O)[O-])C(C)(C)O1 (stereo not drawn) | – | > 200 µM | 110 µM
CCOCN1C(=O)C2CC(/C=C/C(=O)OC)=CN2C(=O)c2ccccc21 (stereo not drawn) | inactive | – | –
COc1nc(N)c(NC2OC(CO)C(O)C2O)c(=O)[nH]1 (stereo not drawn) | – | > 200 µM | 112 µM and 126 µM
CCCCn1c(C)c2c(c1C)C(=O)N(CCN1CCN(c3ccccc3Cl)CC1)C2=O | – | > 200 µM | > 200 µM
CCOC(=O)/C(=C/c1cccc(Cl)c1)C(=O)c1ccccc1 | – | > 12 µM | > 12 µM
CN(C)c1ccc(/C=N/NS(=O)(=O)c2ccc(N)cc2)cc1 | – | > 214 µM | > 214 µM
CC(C)(C)C(=O)C1CC(=O)c2ccccc2C1=O (stereo not drawn) | – | > 29.5 µM | > 29.5 µM
CCOC(=O)CN1CCSC1=NC#N | inactive | – | –
O=C(O)c1nc2ccc(C(F)(F)F)cc2nc1NCc1ccc(F)cc1 | – | > 200 µM | 15.8 µM

Structure (SMILES) | outcome | EC50 | IC50
CC1=N/C(=C\c2cccc([N+](=O)[O-])c2)C(=O)O1 | – | > 562 µM | > 562 µM
CCOP(=O)(OCC)/C(C#N)=C\c1cccc2ccccc12 | – | > 83.2 µM | > 83.2 µM
Cc1cc(C)c2nccc(NCCCN(C)C)c2c1[N+](=O)[O-] | – | > 200 µM | 42.7 µM
Cc1cc(/C=C2\C=Cc3ccccc32)ccc1N(C)C | – | > 38 µM | > 38 µM
CC1(C)CC(Br)(C(Br)c2ccccc2)C(=O)c2ccccc21 (stereo not drawn) | – | > 200 µM | 3.89 µM
CCCCC(C)/C=C/C(=O)C1=C(O)/C(=C/C(=O)O)OC1=O (stereo not drawn) | – | 302 µM | 851 µM
O=C1Nc2cccnc2NC2=C1CSC2 | – | > 200 µM | > 200 µM
O=C(O)c1cc2c([nH]1)-c1cc(C(=O)O)c(C(=O)O)nc1C(=O)C2=O | inactive | – | –
CCOC(=O)/C=C/C(=O)O/C=C/[N+](=O)[O-] | – | 182 µM | > 200 µM
Cc1cc(=O)[nH]c(N/N=C/c2ccc(Cl)c(Cl)c2)n1 | – | > 24.5 µM | 12.3 µM
CCOc1cc2c(cc1Cc1ccc(OC)cc1)OCO2 | – | > 91.2 µM | 0.631 µM
CC(O)(CCCCCl)c1nc2ccccc2s1 (stereo not drawn) | – | > 200 µM | 60.3 µM
N#C/C(c1nc2ccccc2[nH]1)=c1\s/c(=C/c2ccccc2)c(=O)n1-c1ccccc1 | – | > 200 µM | > 200 µM
COc1ccc(N=NC(=O)NC(CC(C)C)C(=O)NC(Cc2ccccc2)C(=O)O)cc1 (stereo not drawn) | – | > 200 µM | 3.09 µM
COC(=O)c1c(-c2ccccc2)sc(-c2cccc3ccccc23)c1C(=O)OC | inactive | – | –
C=C(CCC(Cl)[C@@H]1COC(/C=C/C)O1)[Si](C)(C)C (stereo partly drawn) | – | > 123 µM | > 123 µM
CCCNC1=C(Cl)C(=O)c2ccccc2C1=O | – | > 145 µM | 26.3 µM
O=C(NO)c1ccc([N+](=O)[O-])cc1 | – | > 200 µM | 29.5 µM
NC(=N\N=C/c1ccc(Cl)c(Cl)c1)/C(N)=N\N=C/c1ccc(Cl)c(Cl)c1 | inactive | – | –
CC(O)C(NC(=O)C(CCCN)NC(=O)C(CC(O)CN=C(N)N)NC(=O)C(N)CCCN=C(N)N)C(=O)NC(CCCN)C(=O)NC(CC(O)CN=C(N)N)C(=O)NC(Cc1ccc(O)cc1)C(=O)O (stereo not drawn) (tested in a mixture with another compound) (H-R[X7][Orn]T[Orn][X7]Y-OH; configuration not given here) | – | > 47.9 µM | 39.8 µM
CCOC(=O)C(CCc1ccccn1)C(C)=O (stereo not drawn) | – | > 200 µM | > 200 µM
CCN(CC)CC(=O)NC1c2ccc(Cl)cc2Oc2c(C)cccc21 (stereo not drawn) | – | > 72.4 µM | 58.9 µM
